Consider one compound from patent US20250057164A1, “USE OF ISOXAZOLINECARBOXAMIDE FOR SPROUT INHIBITION” (BAYER AKTIENGESELLSCHAFT, priority 2021, published 2025).

The test system of the experiment is stored potato tubers (Solanum tuberosum, variety: Columbia). The experiment in a line: Visual assessment of sprout development on stored potato tubers after spray application on a roller table. The format is in vivo. As for the experimental part: Application was done on a roller table and were applied with a spray application covering the outside of the tubers homogeneously with the spray solution containing with the respective dose of compound of formula (I) and depending on the treatment with the additional MSO (methylated seed oil) as indicated in the following tables. The spray solutions were prepared to match an equivalent of 10 L water per ton potato.

Regarding `C=C[C@]1(C(=O)N[C@H]2CO[C@@H](C(=O)OC)C2)CC(c2cc(F)cc(F)c2)=NO1` (relative stereo) [compound of formula (I), methyl(2R*,4R*)-4-[[(5S)-3-(3,5-difluorophenyl)-5-vinyl-4H-isoxazole-5-carbonyl]amino]tetrahydrofuran-2-carboxylate], the “Relative inhibition of potato sprouting” value stood at 0% (0.2 g/to, MSO 0.5 L/to, SC 200, 0 DAA); 67% (0.2 g/to, MSO 0.5 L/to, SC 200, 71 DAA); 0% (2 g/to, MSO 0.5 L/to, SC 200, 0 DAA); 73% (2 g/to, MSO 0.5 L/to, SC 200, 71 DAA); 0% (2 g/to, no MSO, SC 200, 0 DAA); 30% (2 g/to, no MSO, SC 200, 28 DAA). Further, the “Relative inhibition of potato sprouting” value by setting is: (2 g/to, no MSO, SC 200, 71 DAA) 18%; (20 g/to, MSO 0.5 L/to, SC 200, 0 DAA) 0%; (20 g/to, MSO 0.5 L/to, SC 200, 71 DAA) 93%; (20 g/to, no MSO, SC 200, 0 DAA) 0%; (20 g/to, no MSO, SC 200, 28 DAA) 45%; (20 g/to, no MSO, SC 200, 71 DAA) 30%. Moreover, the “Relative inhibition of potato sprouting” value worked out at 0% (200 g/to, MSO 0.5 L/to, SC 200, 0 DAA) and 95% (200 g/to, MSO 0.5 L/to, SC 200, 71 DAA).
